From patent US8829014B2, “Thiazole and thiophene analogues, and their use in treating autoimmune diseases and cancers” (Board of Supervisors of Louisiana State University and …, priority 2006, dated 2014) come the findings set out here.

Where two headings read alike, the source gives them in different places.

In one experiment the test system is carageenan-induced edema. Kind of experiment: Carrageenan-induced rat paw edema test (anti-inflammatory activity). The class given is in vivo, Sprague-Dawley rats. Also noted: % Protection: concentration or dose not given beside the values. As to conditions: for inhibition in vivo at 50 mg/kg: Rattus norvegicus, po, 3 h. An outline of the steps: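 Edema was raised by sub-plantar injection of 1% carrageenan into the right hind paw, 1 h after dosing 18 h-fasted male/female Sprague-Dawley rats (150-250 g) with 50 mg/kg p.o. in 0.1% CMC. Swelling was measured by displacement 3 h later and expressed as % protection against saline control.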
For orientation: In the carrageenan paw model, swelling and tenderness develop within hours.

The next experiment has as its system NF-κB. In words: TNF-α-induced NF-κB-dependent luciferase expression in HEK cells. The experiment is classed as cell-based. The settings on record: luciferase in HEK/NF-κB cells, as described in Example 398; for inhibition at 1 µM: Homo sapiens, HEK293, 1 uM, read-out: NFkB inhibition @ 1 uM.
The next experiment relates to AP-1. In words: PMA-induced AP-1 luciferase expression in HEK cells. The experiment is classed as cell-based. The settings on record: luciferase in HEK/AP-1 cells, as described in Example 398; for inhibition at 1 µM: AP1, 1 uM.
[1] abbreviates: rat paw edema, 50 mg/kg, reading 3 hours after carrageenan, [(Control−Test)/Control]×100%, read-out: % Protection P.
The mark [2] stands for this setting: rat paw edema, 50 mg/kg, reading 3 hours after carrageenan, [(Control−Test)/Control]×100%.
[3] abbreviates: carrageenan-induced rat paw edema, defined in Example 397, read-out: % Protection.

As for `O=c1c2ccccc2nc(-c2cc(-c3ccc(Cl)cc3)c(N3CCOCC3)s2)n1-c1ccc(Cl)cc1` [Example 310, 2-[4-(4-Chloro-phenyl)-5-morpholin-4-yl-thiophene-2-yl]-3-(4-chloro-phenyl)-3H-quinazolin-4-one], the inhibition in vivo at 50 mg/kg in the experiment with carageenan-induced edema (setting [1]) was 60%. Moreover, the results for the inhibition at 1 µM with NF-κB and in the experiment on AP-1 were 0% and 14%, respectively.
The corresponding values for `CC(=O)Nc1ccc(-c2cc(C(=O)c3ccc(Cl)cc3Cl)sc2N2CCOCC2)cc1` [Example 70, N-{4-[5-(2,4-Dichloro-benzoyl)-2-morpholin-4-yl-thiophene-3-yl]-phenyl}-acetamide] are 39.2%, 18.6% and 54%.
Taken in the same sequence, the figures for `CNc1nc(C)c(C(=O)c2sc(NC)nc2C)s1` [Example 118, Bis-(4-methyl-2-methylamino-thiazole-5-yl)-methanone] were 40.9%, 8.84% and 33.4%.
Taken in the same sequence, the figures for `CCOC(=O)Nc1nc(Cc2ccccc2)c(C(=O)c2sc(NC(=O)OCC)nc2Cc2ccccc2)s1` [Example 138, Diethyl[carbonyl-bis(4-benzyl-1,3-thiazole-5,2-diyl)]biscarbamate] were 88.9%, 55.6% and 83.6%.
With `CC(=O)c1ccc(-c2cc(-c3nc4ccccc4c(=O)n3-c3ccc(Cl)cc3)sc2N2CCOCC2)cc1` [Example 315, 2-[4-(4-Acetyl-phenyl)-5-morpholin-4-yl-thiophene-2-yl]-3-(4-chloro-phenyl)-3H-quinazolin-4-one], the inhibition in vivo at 50 mg/kg in the experiment with carageenan-induced edema (setting [1]) is 51%. Further, the figures for the inhibition at 1 µM with NF-κB and in the experiment on AP-1 were 0% and 7%, respectively.
The corresponding values for `COc1ccc(C(=O)c2cc(-c3ccc(Cl)cc3)c(N3CCOCC3)s2)cc1` [Example 80, [4-(4-Chloro-phenyl)-5-morpholin-4-yl-thiophen-2-yl]-(4-methoxy-phenyl)-methanone] are 18.9%, -2.91% and 30.6%.
Turning to `O=c1c2ccccc2nc(-c2cc(-c3ccncc3)c(N3CCOCC3)s2)n1-c1ccccc1` [Example 277], in the experiment with carageenan-induced edema (setting [2]), the “% Protection P” value was 65%. Besides, the “AP-1 inhibition @ 1 uM” value with AP-1 is listed as 38.
Turning to `CC(=O)Nc1ccc(-c2cc(-c3nc4ccccc4c(=O)n3-c3ccccc3)sc2N2CCOCC2)cc1` [Example 274, N-{4-[2-Morpholin-4-yl-5-(4-oxo-3-phenyl-3-,4-dihydro-quinazolin-2-yl)-thiophene-3-yl]-phenyl}-acetamide], the “% Protection P” value with carageenan-induced edema (setting [2]) turned out to be 28%. Also, the “NFkB inhibition @ 1 uM” value in the experiment with NF-κB was 29.
Regarding `Cc1ccc(C(=O)c2sc(N3CCN(C(=O)c4ccco4)CC3)nc2-c2ccccc2)cc1` [Example 381, {2-[4-(Furan-2-carbonyl)-piperazin-1-yl]-4-phenyl-thiazol-5-yl}-tolyl-methanone], the “% Protection P” value in the experiment with carageenan-induced edema (setting [2]) worked out at 53%. In the experiment with AP-1, the “AP-1 inhibition @ 1 uM” value is reported as 10.42.
As for `CS(=O)(=O)c1ccc(-c2cc(C(=O)c3cccnc3)sc2N2CCOCC2)cc1` [Example 62, [4-(4-Methanesulfonyl-phenyl)-5-morpholin-4-yl-thiophene-2-yl]-pyridin-3-yl-methanone], the inhibition in vivo at 50 mg/kg with carageenan-induced edema (setting [1]) is 0%.
With `COC(=O)Nc1nc(C)c(C(=O)c2sc(NC(=O)OC)nc2C)s1` [Example 123, Dimethyl[carbonyl-bis(4-methyl-1,3-thiazole-5,2-diyl)]biscarbamate], in the experiment on carageenan-induced edema (setting [1]), the inhibition in vivo at 50 mg/kg was 23.9%.
The same measure, in the same setting: as for `CS(=O)(=O)c1ccc(-c2cc(C(=O)c3ccc(Cl)cc3)sc2N2CCOCC2)cc1` [Example 57, (4-Chloro-phenyl)-[4-(4-methanesulfonyl-phenyl)-5-morpholin-4-yl-thiophen-2-yl]-methanone], the figure is 26.9%; as for `COc1ccc(C(=O)c2cc(-c3ccncc3)c(N3CCOCC3)s2)cc1` [Example 104, (4-Methoxy-phenyl)-(5-morpholin-4-yl-4-pyridin-4-yl-thiophen-2-yl)-methanone], 43.5%.
As for `O=C(c1cc(-c2ccccc2)c(N2CCOCC2)s1)c1ccc(Cl)cc1Cl` [Example 46, (2,4-Dichloro-phenyl)-(5-morpholin-4-yl-4-phenyl-thiophene-2-yl)-methanone], the inhibition in vivo at 50 mg/kg in the experiment with carageenan-induced edema (setting [1]) amounted to 68.3%.
Same read-out and setting: as for `CS(=O)(=O)c1ccc(-c2cc(C(=O)c3ccccc3)sc2N2CCOCC2)cc1` [Example 54, [4-(4-Methanesulfonyl-phenyl)-5-morpholin-4-yl-thiophene-2-yl]-phenyl-methanone], the figure is 17.8%.
For `COc1ccc(C(=O)c2sc(Nc3ccccc3)nc2NC(=O)Nc2ccc(F)cc2)cc1` [Example 354, 1-(4-Fluoro-phenyl)-3-[5-(4-methoxy-benzoyl)-2-phenylamino-thiazol-4-yl]-urea], the “% Protection P” value with carageenan-induced edema (rat paw edema, 50 mg/kg, reading 3 hours after carrageenan, [(Control−Test)/Control]×100%, 50 mg/kg) was found to be 26.27%.
Regarding `CSc1ccc(C(=O)c2cc(-c3ccc(Cl)cc3)c(N3CCOCC3)s2)cc1` [Example 83, [4-(4-Chloro-phenyl)-5-morpholin-4-yl-thiophen-2-yl]-(4-methansulfanyl-phenyl)-methanone], the “% Protection P” value in the experiment on carageenan-induced edema (setting [2]) was 27%.
Take `COc1ccc(Nc2nc(N)c(-c3ncc(C)c(OC)c3C)s2)cc1` [Example 352, (5-(4-Methoxy-3,5-dimethyl-pyridin-2-yl)-N2-(4-methoxy-phenyl)-thiazole-2,4-diamine)]: the inhibition in vivo at 50 mg/kg in the experiment on carageenan-induced edema (setting [1]) was 23%.
For `CS(=O)(=O)c1ccc(C(=O)c2sc(Nc3ccc(Cl)cc3)nc2N)cc1` [Example 336, [4-Amino-2-(4-chloro-phenylamino)-thiazol-5-yl]-(4-methanesulfonyl-phenyl)-methanone], the inhibition in vivo at 50 mg/kg with carageenan-induced edema (setting [1]) amounted to 28.3%.
Take `O=C(c1cc(-c2cccnc2)c(N2CCOCC2)s1)c1ccc(Cl)cc1Cl` [Example 94, (2,4-Dichloro-phenyl)-(5-morpholin-4-yl-4-pyridin-3-yl-thiophen-2-yl)-methanone]: the inhibition in vivo at 50 mg/kg in the experiment with carageenan-induced edema (setting [1]) is -51.4%.
Still for that read-out and setting: as for `Cc1ccc(-n2c(-c3cc(-c4ccc(Cl)cc4)c(N4CCOCC4)s3)nc3ccccc3c2=O)cc1` [Example 291, 2-[4-(4-Chlorophenyl)-5-morpholin-4-yl-thiophen-2-yl]-3-p-tolyl-3H-quinazolin-4-one], the figure is 53%; as for `O=C(c1ccncc1)c1cc(-c2ccncc2)c(N2CCOCC2)s1` [Example 111, (5-Morpholin-4-yl-4-pyridin-4-yl-thiophen-2-yl)-pyridin-4-yl-methanone], 59.1%.
Turning to `CS(=O)(=O)c1ccc(-c2cc(C(=O)c3cc(-c4ccc(S(C)(=O)=O)cc4)c(N4CCOCC4)s3)sc2N2CCOCC2)cc1` [Example 112, Bis-[4-(4-methansulfonyl-phenyl)-5-morpholin-4-yl-thiophen-2-yl]-methanone], the inhibition in vivo at 50 mg/kg in the experiment with carageenan-induced edema (setting [1]) worked out at 55.6%.
As for `Cc1ccc(Nc2nc(C)c(-c3nc4ccccc4c(=O)n3-c3ccc(Cl)cc3)s2)cc1` [Example 247, 2-[2-(4-Methylphenylamino)-4-methyl-thiazol-5-yl]-3-(4-chloro-phenyl)-3H-quinazolin-4-one], in the experiment with carageenan-induced edema (setting [3]), the inhibition in vivo at 50 mg/kg was found to be 71.9%.
Take `COc1ccccc1-n1c(-c2cc(-c3ccccc3)c(N3CCOCC3)s2)nc2ccccc2c1=O` [Example 294, 3-(2-Methoxy-phenyl)-2-(5-morpholin-4-yl-4-phenyl-thiophen-2-yl)-3H-quinazolin-4-one]: the inhibition in vivo at 50 mg/kg in the experiment on carageenan-induced edema (setting [1]) came to 34%.
As to `O=c1c2ccccc2nc(-c2sc(Nc3ccc(Cl)cc3)nc2-c2ccccc2)n1-c1ccccc1Cl` [Example 238, 2-[2-(4-Chlorophenylamino)-4-phenyl-thiazol-5-yl]-3-(2-Chloro-phenyl)1-3H-quinazolin-4-one], the “% Protection” value with carageenan-induced edema (carrageenan-induced rat paw edema, defined in Example 397) is 61%.
Take `O=C(c1ccncc1)c1sc(N2CCN(C(=O)c3ccco3)CC2)nc1-c1ccccc1` [Example 387, {2-[4-(Furan-2-carbonyl)-piperazin-1-yl]-4-phenyl-thiazol-5-yl}-pyridin-4-yl-methanone]: the inhibition in vivo at 50 mg/kg in the experiment on carageenan-induced edema (setting [1]) was found to be 32%.
The same measure, in the same setting: as for `COc1ccc(Nc2nc(N)c(C(=O)c3ccc(Cl)cc3)s2)cc1` [Example 345, ([4-Amino-2-(4-methoxy-phenylamino)-thiazol-5-yl]-(4-chloro-phenyl)-methanone)], the figure is 34.6%.
Same read-out and setting: the same measure for `CCN(CC)C(/C=N/C(=S)NC(=O)c1ccccc1)c1ccccc1` (stereo not drawn) [Example 38, 1-Benzoyl-3-[1-diethylamino-1-phenyl-eth-(E)-ylidene]-thiourea]: 10.9%.
In the case of `COc1ccccc1-n1c(-c2sc(Nc3ccc(Cl)cc3)nc2-c2ccccc2)nc2ccccc2c1=O` [Example 208, 2-[2-(4-Chloro-phenylamino)-4-phenyl-thiazol-5-yl]-3-(2-methoxyphenyl)-3H-quinazolin-4-one], the inhibition in vivo at 50 mg/kg with carageenan-induced edema (setting [3]) stood at 31%.
For `COc1ccccc1-n1c(-c2cc(-c3ccncc3)c(N3CCOCC3)s2)nc2ccccc2c1=O` [Example 298], the “% Protection P” value with carageenan-induced edema (setting [2]) was 42%. Moreover, the “NFkB inhibition @ 1 uM” value in the experiment with NF-κB stood at 55.
Take `Cc1ccc(-n2c(-c3cc(-c4ccc(S(C)(=O)=O)cc4)c(N4CCOCC4)s3)nc3ccccc3c2=O)cc1` [Example 292, 2-[4-(4-Methanesulfonyl-phenyl)-5-morpholin-4-yl-thiophen-2-yl]-3-p-tolyl-3H-quinazolin-4-one]: in the experiment on carageenan-induced edema (setting [1]), the inhibition in vivo at 50 mg/kg is 31%.
